US20110301200A1, “THYROID RECEPTOR LIGANDS” (CADILA HEALTHCARE LIMITED, priority 2008, published 2011)

Legend:
TR-α = target: T1, TR-α (Homo sapiens, UniProt P10827); test: In vitro TR-α activity (in-house protocol); type: cell-based; conditions: read-out: TR-α Fold Induction w.r.t T3(100 nm); for fold induction at 0.001 µM: Conc. 1 nM; for fold induction at 0.01 µM: Conc. 10 nM; for fold induction at 0.1 µM: Conc. 100 nM; for fold induction at 1 µM: Conc. 1000 nM
T1 sequence (P10827 1-410 isoform P10827-2): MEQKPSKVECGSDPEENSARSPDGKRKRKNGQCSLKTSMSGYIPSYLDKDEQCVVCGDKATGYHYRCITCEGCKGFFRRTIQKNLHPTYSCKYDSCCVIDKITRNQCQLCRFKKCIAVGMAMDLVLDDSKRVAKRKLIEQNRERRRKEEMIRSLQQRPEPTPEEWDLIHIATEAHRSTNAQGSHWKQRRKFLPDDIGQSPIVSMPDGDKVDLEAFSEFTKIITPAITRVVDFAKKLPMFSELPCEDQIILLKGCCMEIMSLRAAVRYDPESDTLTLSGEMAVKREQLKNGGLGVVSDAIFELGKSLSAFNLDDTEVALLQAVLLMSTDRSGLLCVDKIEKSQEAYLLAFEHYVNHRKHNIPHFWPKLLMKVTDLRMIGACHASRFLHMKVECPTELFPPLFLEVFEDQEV
Description: (§1) In vitro TR-α & TR-β activities were determined as per in-house protocols and the results of representative compounds are provided in tables 1 & 2 below as a proof of the efficacies of the novel class of compounds disclosed above.

TR-β = target: T2, TR-β (Homo sapiens, UniProt P10828); test: In vitro TR-β activity (in-house protocol); type: cell-based; conditions: read-out: TR-β Fold Induction w.r.t T3(100 nm); for fold induction at 0.001 µM: Conc. 1 nM; for fold induction at 0.01 µM: Conc. 10 nM; for fold induction at 0.1 µM: Conc. 100 nM; for fold induction at 1 µM: Conc. 1000 nM
T2 sequence (P10828 1-461): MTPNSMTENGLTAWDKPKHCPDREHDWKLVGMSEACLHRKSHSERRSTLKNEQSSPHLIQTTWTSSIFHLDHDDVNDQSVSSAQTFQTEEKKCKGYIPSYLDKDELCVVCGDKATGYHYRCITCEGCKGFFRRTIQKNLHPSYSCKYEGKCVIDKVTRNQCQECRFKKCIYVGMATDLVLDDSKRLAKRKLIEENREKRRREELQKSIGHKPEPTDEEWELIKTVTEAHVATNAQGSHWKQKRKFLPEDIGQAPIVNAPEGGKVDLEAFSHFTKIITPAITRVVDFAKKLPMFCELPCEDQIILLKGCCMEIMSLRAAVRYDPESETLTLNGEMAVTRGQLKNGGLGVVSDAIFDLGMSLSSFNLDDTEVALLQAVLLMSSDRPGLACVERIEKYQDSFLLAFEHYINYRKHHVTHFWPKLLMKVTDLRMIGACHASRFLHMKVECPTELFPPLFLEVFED
Description: as §1

Row | Structure (SMILES) | fold induction at 0.001 µM (TR-α) | fold induction at 0.01 µM (TR-α) | fold induction at 0.1 µM (TR-α) | fold induction at 1 µM (TR-α) | fold induction at 0.001 µM (TR-β) | fold induction at 0.01 µM (TR-β) | fold induction at 0.1 µM (TR-β) | fold induction at 1 µM (TR-β)
1 | CC(C)c1cc(Oc2c(Br)cc(C=NOC(C)(C)C(=O)O)cc2Br)ccc1O [Example 12, 2-(((3,5-dibromo-4-(4-hydroxy-3-isopropylphenoxy)benzylidene)amino)oxy)-2-methylpropanoic acid] | 24 | 59.9 | 88.7 | 110 | 39 | 65.4 | 119 | 67.4
2 | O=C(O)CON=Cc1cc(Br)c(Oc2ccc(O)c(Cc3ccccc3)c2)c(Br)c1 [Example 9, 2-(((4-(3-benzyl-4-hydroxyphenoxy)-3,5-dibromobenzylidene)amino)oxy)acetic acid] | 10.7 | 10.7 | 23.8 | 64.8 | 11.5 | 17.6 | 60.2 | 98.8
3 | CC(ON=Cc1cc(Br)c(Oc2ccc(O)c(S(=O)(=O)N3CCCC3)c2)c(Br)c1)C(=O)O (stereo not shown) [Example 42, 2-(((3,5-dibromo-4-(4-hydroxy-3-(pyrrolidin-1-ylsulfonyl)phenoxy)benzylidene)amino)oxy)propanoic acid] | 17.7 | 9.9 | 20.4 | 91.4 | 7.3 | 4.48 | 15 | 60.8
4 | O=C(O)CON=Cc1cc(Br)c(Oc2ccc(O)c(C(=O)c3ccc(Cl)cc3)c2)c(Br)c1 [Example 28, 2-(((3,5-dibromo-4-(3-(4-chlorobenzoyl)-4-hydroxyphenoxy)benzylidene)amino)oxy)acetic acid] | 16.2 | 25 | 40.4 | 54.5 | 10.2 | 26.4 | 61.7 | 58.9
5 | CCC(C)c1cc(Oc2c(Br)cc(C=NOC(C)(C)C(=O)O)cc2Br)ccc1O (stereo not shown) [Example 15, 2-(((3,5-dibromo-4-(3-(sec-butyl)-4-hydroxyphenoxy)benzylidene)amino)oxy)-2-methyl propanoic acid] | 35.7 | 77.7 | 119 | 123 | 23 | 84.3 | 118 | 72.3
6 | CCc1cc(Oc2c(Br)cc(C=NOC(C)C(=O)O)cc2Br)ccc1O (stereo not shown) [Example 25, 2-(((3,5-dibromo-4-(3-ethyl-4-hydroxyphenoxy)benzylidene)amino)oxy)propanoic acid] | 13.8 | 28.5 | 79 | 134 | 11.5 | 37.1 | 59.9 | 86.7
7 | O=C(O)CON=Cc1cc(Br)c(Oc2ccc(O)c(C(=O)c3cccc(Cl)c3)c2)c(Br)c1 [Example 33, 2-(((3,5-dibromo-4-(3-(3-chlorobenzoyl)-4-hydroxyphenoxy)benzylidene)amino)oxy)acetic acid] | 18.7 | 32.2 | 52.1 | 74 | 14 | 30.1 | 72.5 | 62.1
8 | CCC(ON=Cc1cc(Br)c(Oc2ccc(O)c(C(C)C)c2)c(Br)c1)C(=O)O (stereo not shown) [Example 13, 2-(((3,5-dibromo-4-(4-hydroxy-3-isopropylphenoxy)benzylidene)amino)oxy)butanoic acid] | 29.6 | 63.9 | 76.8 | 56.9 | 23.1 | 73.4 | 86.7 | 94.6
